Consider one compound from publication PMC3166647 (Analytical and bioanalytical chemistry, 2011).

This test addresses T1, methionine aminopeptidase 1 (MetAP1) (Plasmodium yoelii, UniProt Q7RFT5).
T1 sequence (Q7RFT5 1-491): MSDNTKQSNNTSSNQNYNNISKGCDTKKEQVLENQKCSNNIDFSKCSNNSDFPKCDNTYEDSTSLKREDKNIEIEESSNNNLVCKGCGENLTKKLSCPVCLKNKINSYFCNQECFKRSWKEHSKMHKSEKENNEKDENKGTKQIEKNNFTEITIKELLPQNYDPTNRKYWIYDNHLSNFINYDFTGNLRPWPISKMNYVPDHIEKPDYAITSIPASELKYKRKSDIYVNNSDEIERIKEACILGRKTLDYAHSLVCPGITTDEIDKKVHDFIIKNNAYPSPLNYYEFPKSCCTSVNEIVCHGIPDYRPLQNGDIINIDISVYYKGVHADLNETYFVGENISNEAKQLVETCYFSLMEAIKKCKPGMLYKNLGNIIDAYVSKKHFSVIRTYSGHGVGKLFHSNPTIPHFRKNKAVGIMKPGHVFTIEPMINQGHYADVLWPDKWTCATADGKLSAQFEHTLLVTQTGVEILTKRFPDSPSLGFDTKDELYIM
Briefly: competition ultrafiltration with HPLC-UV. It counts as binding. Particulars: 4 °C; competes with fragments 4-9.

Each structure is given as a SMILES string.

Consider `CSCC[C@H](N)C(=O)O` [methionine], for which the “competition ultrafiltration with HPLC-UV” value was “methionine was able to compete against lower-affinity ligands more efficiently than higher-affinity ligands”.
